In ChEMBL document CHEMBL1150194, “Two new brominated tyrosine derivatives from the sponge Druinella (= Psammaplysilla) purpurea” (J Nat Prod, 1991):
Activity calls are given as the source filed them. The rule behind the calls is not given here.

Columns and labels:
Staphylococcus aureus = experiment: Antimicrobial activity against Staphylococcus aureus at 100 ug/disk; assay type: functional, organism-based
Bacillus subtilis = experiment: Antimicrobial activity against Bacillus subtilis at 100 ug/disk; assay type: functional, organism-based

In the case of `COc1c(Br)cc(C/C(=N\O)C(=O)NCCCOc2ccc(CCN)cc2Br)cc1Br`, the Activity (Staphylococcus aureus) is reported as “Active” and the Activity (Bacillus subtilis) is reported as “Active”.
For `COC1=C(Br)[C@H](O)[C@@]2(C=C1Br)CC(C(=O)NCCCOc1ccc(CCN)cc1Br)=NO2`, the Activity (Staphylococcus aureus) was “Active” and the Activity (Bacillus subtilis) was “Active”.
